# From patent US20180228811A1, “GDNF INDUCTION FOR THE TREATMENT OF RETINAL DISORDERS” (THE SCHEPENS EYE RESEARCH INSTITUTE, INC., priority 2014, published 2018)
# System: GDNF
# Experiment: GDNF induction by Compound I suspension in wild-type mice
# Format: in vivo, mouse
# Settings: suspension intravitreally; for GDNF mRNA induction vs. vehicle / GDNF protein level vs. vehicle: wild-type mice
# Method: To study GDNF induction by Compound I suspension (60 mg/ml), 2 ul of suspension (n=35) or Vehicle (n=5) were administered intravitreally to 3-week old wild-type (C57/Bl6) mice. A beveled glass needle connected to a Hamilton syringe through polyethylene tubing was ysed. During the injection, corneal paracenthesis was performed to reduce intraocular pressure.
# Animals were euthanized at several timepoints after injection for enucleation and RNA/protein analysis (n=5 for each timepoint, n=4 for 7 days and 14 days): vehicle at 1 hour, Compound I at 1 hour, 1 day, 2 days, 7 days and 14 days. The treated and untreated eyes were enucleated and were collected for mRNA and protein expression as previously described. The treated and untreated eyes were enucleated and placed in 250 ul of chilled RNAlater buffer (Qiagen) and stored at 4° C. The eyes were excised and total neural retina with retinal pigment epithelium was collected into 400 ul of Lysis buffer (Qiagen RNeasy kit) with beta-mercaptoethanol. Total RNA was isolated using RNeasy kit (Qiagen) and eluted with 100 ul of Ultrapure water (Life technologies). All flow through from RNA isolation (˜2.4 ml) was collected and mixed with 10 ml of ice-cold (−20° C.) acetone for protein precipitation. The protein was precipitated at −20° C. for 30 minutes, then pelleted at 3500 rpm for 20 min. Pellets were washed once with 100% ethanol, then reconstituted with 300 ul of RIPA buffer with AEBSF. mRNA and protein expression were assessed by qPCR and Western blot (WB). The results were analyzed by ANOVA (p<0.05).
smiles,measurement,setting,value
"COc1cc2c(cc1S(=O)(=O)c1ccc(OCc3ccc(Cl)cc3)cc1)CCN(C)CC2 [Compound I, 7-[4-(4-chloro-benzyloxy)-benzenesulfonyl]-8-methoxy-3-methyl-2,3,4,5-tetrahydro-1H-3-benzazepine]",GDNF mRNA upregulation over the time course,"C57Bl/6 mice, up to 14 days",> 1.8 fold
same,GDNF protein upregulation over the time course,"C57Bl/6 mice, up to 14 days",> 2.8 fold
same,GDNF mRNA induction vs. vehicle,1 hour,1.4 fold
same,GDNF protein level vs. vehicle,1 hour,0.9 fold
same,GDNF mRNA induction vs. vehicle,1 day,1.3 fold
same,GDNF protein level vs. vehicle,1 day,1.6 fold
same,GDNF mRNA induction vs. vehicle,2 days,1.2 fold
same,GDNF protein level vs. vehicle,2 days,2.4 fold
same,GDNF mRNA induction vs. vehicle,7 days,1.8 fold
same,GDNF protein level vs. vehicle,7 days,2.7 fold
same,GDNF mRNA induction vs. vehicle,14 days,1.8 fold
same,GDNF protein level vs. vehicle,14 days,3.2 fold
